Assay results reported in US8088918B2, “Noncardiotoxic pharmaceutical compounds” (Williamsburg Holdings LLC, priority 2004, dated 2012).

Columns and labels:
[1] = Stability testing of prodrugs in human plasma; assay type: in vitro ADME; details: 10 μM, ca. 37° C.
Experimental: (§1) Pooled human plasma was obtained from Bioreclamation (East Meadow, N.Y.) by collection into sodium EDTA as the anticoagulant, and was stored at ca −20° C. prior to use. Prior to use, the plasma defrosted and was spun at ca. 3000 rpm for 5 minutes to remove any precipitate. The pH of the plasma was adjusted to pH 7.4 by careful addition of NaH2PO4 buffer.
(§2) Plasma stability was assessed by incubation of 10 μM of each compound prepared in Examples 1-5 with human plasma, in duplicate, at ca. 37° C. with shaking. Each compound prepared in Examples 1-5 was also incubated at 10 μM in PBS as a control for compound heat stability. Aliquots were removed at 0, 0.5, 1 and 2 hours and stored at −20° C. until analysis.
(§3) For analysis, plasma samples were extracted in 1 part acetonitrile and isolation of the supernatant. Analysis of each compound prepared in Examples 1-5 in plasma extracts was conducted by an LC-MS method at each time interval and quantification was achieved by comparison of the response due to the sample to that of a three point standard curve. Appearance of the parent drug the hydroxymetabolites were also monitored at each time interval. The % degradation following incubation at each time point was calculated by comparison of the parent concentration to that at 0 minutes.

[2] = Stability testing of prodrugs in rat plasma (elevated esterase activity); assay type: in vitro ADME, Sprague-Dawley rat; details: 10 μM, ca. 37° C.
Experimental: as §1, with “Sprague-Dawley rat” for “Pooled human”, “obtained” for “obtained from Bioreclamation (East Meadow, N.Y.)”
as §2, with “rat” for “human”
as §3, with “drug and” for “drug”

[3] = Metabolic stability, microsomal incubations without inhibitor; assay type: in vitro ADME; details: 10 μM, 0.5 mg/mL microsomal protein
Experimental: (§4) The metabolic stability of each compound prepared in Examples 1-5 was assessed in microsomal preparations obtained from BD Gentest (Woburn, Mass.).
(§5) The metabolic stability of each compound prepared in Examples 1-5 was assessed in duplicate by incubation of 10 μM compound with 0.5 mg/mL microsomal protein, 1 mM in 0.1 M phosphate buffer, pH 7.4 in the presence and absence of a CYP3A4 inhibitor (ketoconazole). The reaction mixture was pre-incubated, in the absence of the microsomes, at ca. 37° C. for 5 minutes, followed by initiation of the incubation by the addition of microsomal protein and maintained at ca. 37° C. for a further 0, 30 and 60 minutes. After the appropriate incubation time, the mixtures were quenched by the addition of one volume of acetonitrile and the supernatant was isolated by centrifugation. Positive control incubations (7-ethoxycoumarin) were performed in the same manner as the compounds from Examples 1-5 and quenched after 0 and 30 minutes. In addition, negative control incubations were performed for 60 minutes in the absence of NADPH to assess chemical stability.
(§6) Analysis of supernatants from each time interval was conducted for each compound prepared in Examples 1-5 by LC-MS analysis. Quantification of the disappearance on the parent drug was achieved by comparison of the sample response to that of a suitable standard curve constructed in 0.1 M phosphate buffer, pH 7.4. The standard curve ranged between ≦1% up to ≧100% of the dosing concentration.
(§7) The % turnover following 60 minutes of incubation was calculated by comparison of the parent concentration to that at 0 minutes. The % degradation was calculated in the same manner from the negative control incubations. Appearance of the parent drug and the hydroxymetabolites were also monitored at each time interval.

[4] = Metabolic stability, microsomal incubations with ketoconazole (CYP3A4 inhibitor); assay type: in vitro ADME; details: 10 μM, 0.5 mg/mL microsomal protein
Experimental: as §4, §5, §6, §7

recombinant human CYP3A4 = molecular target: T1, recombinant human CYP3A4 (Homo sapiens, UniProt P08684); assay: Metabolic stability in the presence of CYP3A4 isozyme; assay type: in vitro ADME; details: 10 μm compound
T1 construct: purchased BD Gentest (Woburn, Mass.)
Experimental: (§8) The metabolic stability of each compound prepared in Examples 1-5 was assessed in the presence of CYP2D6 and CYP3A4 obtained from BD Gentest (Woburn, Mass.).
(§9) The metabolic stability of each compound prepared in Examples 1-5 was assessed in duplicate by incubation of 10 μm compound with recombinant human CYP2D6 and 3A4 using similar conditions to those in Example 9. Samples were removed for analysis at 0, 30 and 60 minutes and extracted with one volume of organic solvent. Appropriate controls were included. Quantification of the disappearance of the prodrug was conducted LC-MS. Appearance of metabolites was also monitored.

CYP2D6 = CYP2D6 (Homo sapiens, UniProt P10635); assay: Metabolic stability in the presence of CYP2D6 isozyme; assay type: in vitro ADME; parameters: purchased BD Gentest (Woburn, Mass.); details: 10 μm compound
Experimental: as §8, §9

[5] = Stability testing in simulated gastric fluids; details: 10 μM, saline pH approximately 1 plus pepsin
[6] = Stability testing in simulated intestinal fluids; details: 10 μM
[7] = phosphate pH 6, incubation time 0 min
[8] = phosphate pH 6, incubation time 30 min
[9] = phosphate pH 6, incubation time 60 min
[10] = phosphate pH 6, incubation time 120 min

CYP2D6, sequence (P10635 whole entry): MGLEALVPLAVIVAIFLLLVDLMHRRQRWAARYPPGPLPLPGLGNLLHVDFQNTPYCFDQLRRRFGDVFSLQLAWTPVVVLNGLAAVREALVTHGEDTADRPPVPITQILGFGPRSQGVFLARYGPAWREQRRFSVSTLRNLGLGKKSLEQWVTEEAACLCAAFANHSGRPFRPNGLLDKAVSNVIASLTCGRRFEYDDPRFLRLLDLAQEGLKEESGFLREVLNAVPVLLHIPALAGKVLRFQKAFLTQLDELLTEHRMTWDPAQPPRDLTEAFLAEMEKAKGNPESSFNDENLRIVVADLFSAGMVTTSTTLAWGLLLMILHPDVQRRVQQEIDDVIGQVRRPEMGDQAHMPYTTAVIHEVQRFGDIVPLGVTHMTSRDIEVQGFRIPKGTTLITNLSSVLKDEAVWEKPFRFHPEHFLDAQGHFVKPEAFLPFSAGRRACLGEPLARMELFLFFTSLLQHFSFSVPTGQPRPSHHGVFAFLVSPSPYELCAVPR
T1 sequence (P08684 whole entry): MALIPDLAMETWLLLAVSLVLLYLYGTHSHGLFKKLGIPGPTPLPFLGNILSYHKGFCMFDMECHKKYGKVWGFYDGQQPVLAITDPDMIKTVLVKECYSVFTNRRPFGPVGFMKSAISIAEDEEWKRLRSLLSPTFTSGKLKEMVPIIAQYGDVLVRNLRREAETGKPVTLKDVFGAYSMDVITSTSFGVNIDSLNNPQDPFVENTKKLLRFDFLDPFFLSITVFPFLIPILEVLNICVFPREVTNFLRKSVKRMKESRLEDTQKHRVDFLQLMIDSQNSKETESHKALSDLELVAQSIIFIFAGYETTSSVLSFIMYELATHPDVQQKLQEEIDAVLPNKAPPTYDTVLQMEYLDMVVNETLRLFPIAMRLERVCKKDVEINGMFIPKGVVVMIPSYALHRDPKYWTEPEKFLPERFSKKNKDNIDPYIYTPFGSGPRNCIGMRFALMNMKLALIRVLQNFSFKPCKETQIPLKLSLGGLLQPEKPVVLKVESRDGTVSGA

SMILES | Loss of parent compound in human plasma (%) ([1]; incubation time 0 min) | Loss of parent compound in human plasma (%) ([1]; incubation time 30 min) | Loss of parent compound in human plasma (%) ([1]; incubation time 60 min) | Loss of parent compound in human plasma (%) ([1]; incubation time 120 min) | Loss of parent compound in rat plasma (%) ([2]; incubation time 0 min) | Loss of parent compound in rat plasma (%) ([2]; incubation time 30 min) | Loss of parent compound in rat plasma (%) ([2]; incubation time 60 min) | Loss of parent compound in rat plasma (%) ([2]; incubation time 120 min) | Loss of parent compound with no ketoconazole (%) ([3]; incubation time 30 min) | Loss of parent compound with no ketoconazole (%) ([3]; incubation time 60 min) | Loss of parent compound with ketoconazole (%) ([4]; incubation time 30 min) | Loss of parent compound with ketoconazole (%) ([4]; incubation time 60 min) | Loss of parent compound with CYP3A4 isozyme (%) (recombinant human CYP3A4; incubation time 0 min) | Loss of parent compound with CYP3A4 isozyme (%) (recombinant human CYP3A4; incubation time 30 min) | Loss of parent compound with CYP3A4 isozyme (%) (recombinant human CYP3A4; incubation time 60 min) | Loss of parent compound with CYP2D6 isozyme (%) (CYP2D6; incubation time 0 min) | Loss of parent compound with CYP2D6 isozyme (%) (CYP2D6; incubation time 30 min) | Loss of parent compound with CYP2D6 isozyme (%) (CYP2D6; incubation time 60 min) | Loss of parent compound in simulated gastric fluid (%) ([5]; incubation time 0 min) | Loss of parent compound in simulated gastric fluid (%) ([5]; incubation time 30 min) | also measured
CCCOC(=O)N(C)CCCN1c2ccccc2CCc2ccccc21 [RIC-5b, [3-(10,11-Dihydro-dibenzo[b,f]azepin-5-yl)-propyl]-methyl-carbamic acid propyl ester] | 0.00 | 7.15% | 6.85 | 21.06 | 0.00 | 7.17 | 8.34 | 23.42 | 64.76 | 82.29 | 31.69 | 50.21 | 0.00 | 92.32 | 95.20 | 0.00 | 19.21 | 28.01 | 0.00 | 58.72 | Loss of parent compound in simulated gastric fluid (%) ([5]; incubation time 60 min): 26.67%; Loss of parent compound in simulated gastric fluid (%) ([5]; incubation time 120 min): 94.37%; Loss of parent compound in simulated intestinal fluid (%) [6, 7]: 0.00%; Loss of parent compound in simulated intestinal fluid (%) [6, 8]: 6.73%; Loss of parent compound in simulated intestinal fluid (%) [6, 9]: 13.57%; Loss of parent compound in simulated intestinal fluid (%) [6, 10]: 25.61%
COC(=O)N(C)CCCN1c2ccccc2CCc2ccccc21 [RIC-5a, [3-(10,11-Dihydro-dibenzo[b,f]azepin-5-yl)-propyl]-methyl-carbamic acid methyl ester] | 0.00 | 5.47% | 15.80 | 26.22 | 0.00 | 8.81 | 23.43 | 45.85 | 70.94 | 87.25 | 27.65 | 62.37 | 0.00 | 91.32 | 97.96 | 0.00 | 73.91 | 83.13 | 0.00 | 13.93 | Loss of parent compound in simulated gastric fluid (%) ([5]; incubation time 60 min): 31.78%; Loss of parent compound in simulated gastric fluid (%) ([5]; incubation time 120 min): 81.43%; Loss of parent compound in simulated intestinal fluid (%) [6, 7]: 0.00%; Loss of parent compound in simulated intestinal fluid (%) [6, 8]: 16.75%; Loss of parent compound in simulated intestinal fluid (%) [6, 9]: 22.88%; Loss of parent compound in simulated intestinal fluid (%) [6, 10]: 35.18%
CC(C)COC(=O)N(C)CCCN1c2ccccc2CCc2ccccc21 [RIC-5c, [3-(10,11-Dihydro-dibenzo[b,f]azepin-5-yl)-propyl]-methyl-carbamic acid isobutyl ester] | 0.00 | 5.11% | −1.48 | 25.82 | 0.00 | −14.69 | −2.88 | 33.40 | 54.01 | 76.36 | 6.36 | 19.49 | 0.00 | 72.07 | 90.69 | 0.00 | 43.71 | 70.07 | 0.00 | 70.64 | Loss of parent compound in simulated gastric fluid (%) ([5]; incubation time 60 min): 82.77%; Loss of parent compound in simulated gastric fluid (%) ([5]; incubation time 120 min): 98.11%; Loss of parent compound in simulated intestinal fluid (%) [6, 7]: 0.00%; Loss of parent compound in simulated intestinal fluid (%) [6, 8]: 1.05%; Loss of parent compound in simulated intestinal fluid (%) [6, 9]: 12.68%; Loss of parent compound in simulated intestinal fluid (%) [6, 10]: 21.78%
CCOP(=O)(OCC)N(C)CCCN1c2ccccc2CCc2ccccc21 [RIC-02, [3-(10,11-Dihydro-dibenzo[b,f]azepin-5-yl)-propyl]-methyl-phosphoramidic acid diethyl ester] | 0.00 | −.43% | 9.94 | 7.93 | 0.00 | 4.67 | 11.01 | 9.02 | 76.17 | 91.40 | −17.26 | 11.04 | 0.00 | 97.05 | 98.62 | 0.00 | 13.19 | 37.11 | 0.00 | 49.94 | Loss of parent compound in simulated gastric fluid (%) ([5]; incubation time 60 min): 74.67%; Loss of parent compound in simulated gastric fluid (%) ([5]; incubation time 120 min): 93.12%; Loss of parent compound in simulated intestinal fluid (%) [6, 7]: 0.00%; Loss of parent compound in simulated intestinal fluid (%) [6, 8]: 11.65%; Loss of parent compound in simulated intestinal fluid (%) [6, 9]: 7.83%; Loss of parent compound in simulated intestinal fluid (%) [6, 10]: 9.29%
